The record followed here is patent US20200223889A1, “Bicyclic Compounds Capable of Binding to Melanocortin 4 Receptor” (Novo Nordisk A/S, priority 2017, published 2020).

As usually defined, the EC50 is the concentration at which the effect is half-maximal. In general, Ki refers to the dissociation constant of the complex between target and ligand, obtained from inhibition or displacement.

Assay [1] addresses T1, human MC1R (Homo sapiens, UniProt Q01726).
T1 construct: expressed in transfected cells
The assay is described as follows: Functional cAMP assay (CisBio HTRF) in BHK cells expressing human MC1R. Format: cell-based. On the procedure: In order to assess the potency of the compounds on human MC1R and human MC4R cAMP signalling was measured.
cAMP induction was measured by c-AMPdynamic2 assay, HTRF 62AM4PEC system from CisBio for the human MC1R and human MC4R according to the protocol provided by the vendor. BHK cells expressing the human MC1 or MC4 receptor were generated by stable transfection with expression vectors encoding the cDNA of either MC1R or MC4R.
In details; 25 μl compound—or standard solution were added in the respective wells. Compound was reconstituted in buffer (DMEM w/o phenol red, 10 mM
Hepes, lx Glutamine, 0.1% OV-albumin1, 1 mM IBMX) and serially diluted starting at 2 μM, 10-fold seven times. Dilutions were carried out in the same aforementioned buffer to the desired working concentration ranges (2× higher than the final concentration). 25 μl cell solution was then added and allowed to incubate for 30 min while lightly shaking, at 25° C. […] The provided components for the assay were reconstituted according to the CisBio assay protocol “3.1 supplied reagents and preparation procedure” in MilliQ purification system H2O and diluted 1:20 in lysis buffer. 25 μl cAMP-d2 and 25 μl Cryptate conjugate were added to all wells.
Plates were centrifuged at 1500 rpm for 30 sec and incubated for 1 h, lightly shaking, at 25° C. in a hotel stacker. The plates were read on Mithras LB 940 provided by Berthold Technologies The data were analysed by non-linear regression analysis of binding curves, using the Windows™ program GraphPad™ Prism (GraphPad Software, USA).
The latter is used when no full curve can be obtained in the concentration ranges indicated above.

For assay [2], the target named is T2, human MC4R (Homo sapiens, UniProt P32245).
T2 construct: expressed in transfected cells
The assay is described as follows: 125NDP-α-MSH competitive binding to membranes of BHK cells expressing human MC4 receptor (filtration assay). An outline of the steps: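 Displacement of ^125NDP-α-MSH (apx. […] final) was measured by filtration after 2 h at 25 °C, using diluted membranes of stably transfected BHK cells in pH 7.0 HEPES buffer. Compounds spanned 1 μM to 0.001 nM; binding curves were analysed by non-linear regression.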

The target of assay [3] is T2, human MC4R. The assay is described as follows: Functional cAMP assay (CisBio HTRF) in BHK cells expressing human MC4R. Particulars: for MC1R/MC4R cAMP EC50 ratio: MC1R cAMP EC50 divided by MC4R cAMP EC50. The format is cell-based. In short, it runs like this: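 Stably transfected BHK cells expressing human MC1R or MC4R; cAMP quantified by HTRF (cAMP-d2/cryptate) after 30 min compound stimulation at 25 °C in DMEM-based buffer with 1 mM IBMX. Compounds were prepared as 10-fold serial dilutions starting at 2 μM (working solution, 2× final). Readout after 1 h at 25 °C; non-linear regression.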
(In general: Cyclic AMP is a second messenger, typically raised through Gs and lowered through Gi signalling.)

Setting [4] is: BHK cells expressing human MC1R, '>' = highest dose used with no response, read-out: MC1R cAMP EC50.
Where [5] appears, read: human MC4R, BHK cell membranes, 125NDP-α-MSH radioligand, read-out: MC4R binding Ki.
Setting [6] is: BHK cells expressing human MC4R, '>' = highest dose used with no response, read-out: MC4R cAMP EC50.

The structures appear in SMILES notation. Read-outs that look alike come from different tables or passages of the source. Positions of bridges follow the written chain, without caps; N, C: chain ends. Non-standard residues stand in square brackets, D forms with d. Residues, ends and D or L forms follow the SMILES beside them. Phe(3,4-Cl2) = N[C@@H](Cc1ccc(Cl)c(Cl)c1)C(=O)O; Ser(ΨH,HPro) = O=C(O)[C@@H]1COCN1; Thz = O=C(O)[C@@H]1CSCN1; Dab = NCC[C@H](N)C(=O)O; Aib = CC(C)(N)C(=O)O; GABA = NCCCC(=O)O A value given as a limit tells only on which side of the number the result lay.

T1 sequence (Q01726 whole entry): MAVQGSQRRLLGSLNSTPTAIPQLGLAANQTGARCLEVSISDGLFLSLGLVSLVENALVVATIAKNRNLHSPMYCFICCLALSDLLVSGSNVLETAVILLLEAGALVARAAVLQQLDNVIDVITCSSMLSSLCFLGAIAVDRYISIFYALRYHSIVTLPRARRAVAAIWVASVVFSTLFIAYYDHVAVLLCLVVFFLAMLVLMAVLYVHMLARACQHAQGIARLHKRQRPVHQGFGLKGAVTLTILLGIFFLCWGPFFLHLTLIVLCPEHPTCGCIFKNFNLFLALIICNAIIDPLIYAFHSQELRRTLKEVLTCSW
T2 sequence (P32245 whole entry): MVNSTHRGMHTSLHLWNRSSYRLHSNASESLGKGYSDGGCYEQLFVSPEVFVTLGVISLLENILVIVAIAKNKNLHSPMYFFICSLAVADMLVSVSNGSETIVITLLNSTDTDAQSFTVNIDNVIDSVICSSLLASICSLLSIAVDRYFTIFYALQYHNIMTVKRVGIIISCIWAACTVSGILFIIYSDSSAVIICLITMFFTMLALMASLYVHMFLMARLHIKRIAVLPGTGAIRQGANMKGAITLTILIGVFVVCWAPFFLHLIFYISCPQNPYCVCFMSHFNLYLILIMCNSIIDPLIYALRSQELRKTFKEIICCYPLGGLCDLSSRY

On to `C[C@@H]1NC(=O)[C@@H]2CSSC[C@H](NC(=O)[C@H](Cc3c[nH]c4ccccc34)NC(=O)[C@H](CCCNC(=N)N)NC(=O)[C@@H](Cc3ccccc3)NC(=O)[C@H](Cc3c[nH]cn3)NC1=O)C(=O)N1CCC[C@H]1C(=O)N1CCC[C@H]1C(=O)N[C@@H](CCC(=O)O)C(=O)N[C@@H](CCCNC(=N)N)C(=O)N[C@@H](Cc1c[nH]c3ccccc13)C(=O)N2` [Chem. 112, c[c[Cys-Ala-His-D-Phe-Arg-Trp-Cys]- Pro-Pro-Glu-Arg-Trp]] (cyclo(AH[dF]RWCPPERWC); disulfide 6-12), for which the concentration for a half-maximal effect (EC50) came to 30.2 nM in assay [1] (setting [4]) and 0.19 nM in assay [3] (setting [6]). The Ki in assay [2] (setting [5]) is 1.21 nM. Further, in assay [3], the “MC1R/MC4R cAMP EC50 ratio” value was 159.
Consider `C[C@@H]1NC(=O)[C@@H]2CSSC[C@H](NC(=O)[C@H](Cc3c[nH]c4ccccc34)NC(=O)[C@H](CCCNC(=N)N)NC(=O)[C@@H](Cc3ccccc3)NC(=O)[C@H](Cc3c[nH]cn3)NC1=O)C(=O)N[C@@H](CCCCN)C(=O)N[C@@H](CCCCN)C(=O)N[C@@H](CCCCN)C(=O)N[C@@H](CCCNC(=N)N)C(=O)N2` [Chem. 101, c[c[Cys-Ala-His-D-Phe-Arg-Trp-Cys]- Lys-Lys-Lys-Arg]] (cyclo(AH[dF]RWCKKKRC); disulfide 6-11), for which the concentration giving a half-maximal response (EC50) turned out to be 0.19 nM in assay [1] (setting [4]) and 0.04 nM in assay [3] (setting [6]). Moreover, in assay [2] (setting [5]), the inhibition constant (Ki) was determined as 0.05 nM. In addition, in assay [3], the “MC1R/MC4R cAMP EC50 ratio” value is recorded as 5.
Regarding `C[C@@H]1NC(=O)[C@@H]2CSSC[C@H](NC(=O)[C@H](Cc3ccc(Cl)c(Cl)c3)NC(=O)[C@H](CCCNC(=N)N)NC(=O)[C@@H](Cc3ccccc3)NC(=O)[C@H](Cc3c[nH]cn3)NC1=O)C(=O)N[C@@H](C)C(=O)N[C@@H](CCCCN)C(=O)N[C@@H](CCCCN)C(=O)N[C@@H](CCCCN)C(=O)N[C@@H](Cc1c[nH]c3ccccc13)C(=O)N2` [Chem. 66, c[c[Cys-Ala-His-D-Phe-Arg-3,4-DiCl- Phe-Cys]-Ala-Lys-Lys-Lys-Trp]] (cyclo(AH[dF]R[Phe(3,4-Cl2)]CAKKKWC); disulfide 6-12), the EC50 turned out to be 0.22 nM in assay [1] (setting [4]) and 0.01 nM in assay [3] (setting [6]). In assay [2] (setting [5]), the Ki came out at 0.03 nM. Moreover, the “MC1R/MC4R cAMP EC50 ratio” value in assay [3] was 22.
The compound `C[C@@H]1NC(=O)[C@H](C)NC(=O)[C@H](C)NC(=O)[C@@H]2CSSC[C@H](NC(=O)[C@H](Cc3c[nH]c4ccccc34)NC(=O)[C@H](C)NC1=O)C(=O)N[C@@H](C)C(=O)N[C@@H](Cc1c[nH]cn1)C(=O)N[C@H](Cc1ccccc1)C(=O)N[C@@H](CCCNC(=N)N)C(=O)N[C@@H](Cc1c[nH]c3ccccc13)C(=O)N2` [Chem. 87, c[c[Cys-Ala-His-D-Phe-Arg-Trp-Cys]- Ala-Ala-Ala-Ala-Trp]] (cyclo(AAAAWCAH[dF]RWC); disulfide 6-12) registered an EC50 in assay [1] of 1.39 nM. In assay [2], this compound returned an inhibitory constant (Ki) of 0.17 nM. Moreover, in assay [3], the EC50 is 0.04 nM and the “MC1R/MC4R cAMP EC50 ratio” value worked out at 35.
Turning to `C[C@@H]1NC(=O)[C@@H]2CSSC[C@H](NC(=O)[C@H](Cc3c[nH]c4ccccc34)NC(=O)[C@H](CCCCN)NC(=O)[C@H](CCCCN)NC(=O)[C@H](CCCCN)NC1=O)C(=O)N1CCC[C@H]1C(=O)N[C@@H](Cc1c[nH]cn1)C(=O)N[C@H](Cc1ccccc1)C(=O)N[C@@H](Cc1c[nH]cn1)C(=O)N[C@@H](Cc1c[nH]c3ccccc13)C(=O)N2` [Chem. 62, c[c[Cys-Pro-His-D-Phe-His-Trp-Cys]- Ala-Lys-Lys-Lys-Trp]] (cyclo(AKKKWCPH[dF]HWC); disulfide 6-12), the EC50 is greater than 1 nM in assay [1] (setting [4]) and 0.17 nM in assay [3] (setting [6]). The Ki in assay [2] (setting [5]) was 0.13 nM. Also, in assay [3], the “MC1R/MC4R cAMP EC50 ratio” value is given as greater than 6.
As to `C[C@@H]1NC(=O)[C@H](C)NC(=O)[C@@H]2CSSC[C@H](NC(=O)[C@H](Cc3c[nH]c4ccccc34)NC(=O)[C@H](C)NC(=O)[C@H](CCCCN)NC1=O)C(=O)N1CSC[C@H]1C(=O)N[C@@H](Cc1c[nH]cn1)C(=O)N[C@H](Cc1ccccc1)C(=O)N[C@@H](Cc1c[nH]cn1)C(=O)N[C@@H](Cc1c[nH]c3ccccc13)C(=O)N2` [Chem. 109, c[c[Cys-THAZ-His-D-Phe-His-Trp- Cys]-Ala-Ala-Lys-Ala-Trp]] (cyclo(AAKAWC[Thz]H[dF]HWC); disulfide 6-12), the results for the EC50 in assay [1] and in assay [3] were greater than 7 nM and 0.15 nM, respectively. Further, the Ki in assay [2] is 0.3 nM. In addition, the “MC1R/MC4R cAMP EC50 ratio” value in assay [3] was greater than 47.
In turn, `C[C@@H]1NC(=O)[C@H](C)NC(=O)[C@@H]2CSSC[C@H](NC(=O)[C@H](CCCNC(=N)N)NC(=O)[C@H](C)NC(=O)[C@@H](C)NC1=O)C(=O)N[C@@H](C)C(=O)N[C@@H](Cc1c[nH]cn1)C(=O)N[C@H](Cc1ccccc1)C(=O)N[C@@H](CCCNC(=N)N)C(=O)N[C@@H](Cc1c[nH]c3ccccc13)C(=O)N2` [Chem. 90, c[c[Cys-Ala-His-D-Phe-Arg-Trp-Cys]- Ala-Ala-D-Ala-Ala-Arg]] (cyclo(AA[dA]ARCAH[dF]RWC); disulfide 6-12) had an EC50 in assay [1] of 0.65 nM. The compound also returned an inhibitory constant (Ki) in assay [2] of 0.11 nM. Also, in assay [3], a half-maximal response (EC50) required 0.01 nM and the “MC1R/MC4R cAMP EC50 ratio” value worked out at 65.
With `N=C(N)NCCC[C@@H]1NC(=O)[C@@H](Cc2ccccc2)NC(=O)[C@H](Cc2c[nH]cn2)NC(=O)CCCNC(=O)[C@@H]2CSSC[C@H](NC(=O)[C@H](Cc3c[nH]c4ccccc34)NC1=O)C(=O)NCCCC(=O)N[C@@H](Cc1c[nH]cn1)C(=O)N[C@H](Cc1ccccc1)C(=O)N[C@@H](CCCNC(=N)N)C(=O)N[C@@H](Cc1c[nH]c3ccccc13)C(=O)N2` [Chem. 35, c[c[Cys-GABA-His-D-Phe-Arg-Trp- Cys]-GABA-His-D-Phe-Arg-Trp]] (cyclo(C[GABA]H[dF]RWC[GABA]H[dF]RW); disulfide 1-7), the EC50 in assay [1] (setting [4]) is 0.28 nM; in assay [3] (setting [6]), 0.01 nM. The Ki in assay [2] (setting [5]) is 0.03 nM. In addition, the “MC1R/MC4R cAMP EC50 ratio” value in assay [3] is given as 28.
In the same order, the values of `C[C@@H]1NC(=O)[C@@H]2CSSC[C@H](NC(=O)[C@H](Cc3c[nH]c4ccccc34)NC(=O)[C@H](CCCCN)NC(=O)[C@H](CCCCN)NC(=O)[C@H](CCCCN)NC1=O)C(=O)N1COC[C@H]1C(=O)N[C@@H](Cc1c[nH]cn1)C(=O)N[C@H](Cc1ccccc1)C(=O)N[C@@H](Cc1c[nH]cn1)C(=O)N[C@@H](Cc1c[nH]c3ccccc13)C(=O)N2` [Chem. 103, c[c[Cys-OXA-His-D-Phe-His-Trp- Cys]-Ala-Lys-Lys-Lys-Trp]] (cyclo(AKKKWC[Ser(ΨH,HPro)]H[dF]HWC); disulfide 6-12) are greater than 70 nM, 0.05 nM, 0.06 nM and greater than 1400.
As to `C[C@@H]1NC(=O)[C@@H]2CSCSC[C@H](NC(=O)[C@H](Cc3c[nH]c4ccccc34)NC(=O)[C@H](CCCNC(=N)N)NC(=O)[C@@H](Cc3ccccc3)NC(=O)[C@H](Cc3c[nH]cn3)NC1=O)C(=O)N[C@@H](C)C(=O)N[C@@H](Cc1c[nH]cn1)C(=O)N[C@H](Cc1ccccc1)C(=O)N[C@@H](CCCNC(=N)N)C(=O)N[C@@H](Cc1c[nH]c3ccccc13)C(=O)N2` [Chem. 8, c[c[Cys-Ala-His-D-Phe-Arg-Trp-Cys]- Ala-His-D-Phe-Arg-Trp]], the EC50 in assay [1] (setting [4]) was 1.76 nM; in assay [3] (setting [6]), 0.02 nM. In assay [2] (setting [5]), the Ki came to 0.08 nM. Besides, the “MC1R/MC4R cAMP EC50 ratio” value in assay [3] was found to be 88.
On the same counts, the results for `CC1(C)NC(=O)[C@@H]2CSSC[C@H](NC(=O)[C@H](Cc3c[nH]c4ccccc34)NC(=O)[C@H](CCN)NC(=O)[C@@H](Cc3ccccc3)NC(=O)[C@H](Cc3c[nH]cn3)NC1=O)C(=O)NC(C)(C)C(=O)N[C@@H](Cc1c[nH]cn1)C(=O)N[C@H](Cc1ccccc1)C(=O)N[C@@H](CCN)C(=O)N[C@@H](Cc1c[nH]c3ccccc13)C(=O)N2` [Chem. 46, c[c[Cys-Aib-His-D-Phe-Dab-Trp- Cys]-Aib-His-D-Phe-Dab-Trp]] (cyclo([Aib]H[dF][Dab]WC[Aib]H[dF][Dab]WC); disulfide 6-12) are greater than 5.5 nM, 5.65 nM, 7.86 nM and greater than 1.
